The values that follow come from patent publication US5428013A, “Differential diagnosis and treatment of the states of growth hormone insufficiency (or deficiency) with an alpha-2-adrenergic agonist and a growth hormone releasing peptide” (priority 1992, dated 1995).

Assay [1] relates to GH secretion. The conditions noted are these: cited from earlier work.
Assay [2] deals with GH secretion. Briefly: Provocative tests for GH secretion in short children (clonidine, propranolol plus exercise, insulinic hypoglycemia, placebo plus GHRH, clonidine plus GHRH). Type of assay: in vivo. An excerpt:
Twenty-four children (17 boys and 7 girls) with stature below the third percentile (P3), participated in the study with informed consent (parent and child). Ages of the children ranged from 7 to 13.9 years. In all but seven of the children, weight was more than or equal to P3. […] Two children had received prophylactic cranial irradiation due to brain tumors, five and three years before the study. […] All children had been previously studied for their GH insufficiency. Studies included growth velocity, bone age, classical provocative tests for GH secretion (i.e. clonidine, insulin hypoglycemia and propranolol plus exercise), plasma somatomedin C (Sm C) (Insulin Growth Factor-I (IGF-I)) analysis, and analysis of the spontaneous pattern of nocturnal GH secretion.
Studies commenced at 09.00 h after an overnight fast and bed rest and thirty minutes after the insertion of a nonthrombogenic catheter for blood withdrawal in a forearm vein. The study consisted of administering clonidine (Catapresan, Boehringer Ingelheim, Spain) orally at 150 micrograms/m^2 at time 0, followed by administering GHRH (GRF 1-29, Serono, Spain) as an intravenous bolus at 1 microgram/kg at time 60 minutes. An additional control for short children consisted of administering a placebo at time 0, followed by administering GHRH at time 60 minutes. Blood samples for GH analysis (RIA, BioMerieux, France) were taken at 0 and 60 minutes and at 15 minute intervals for one hour following GHRH administration. The mean intra-assay coefficient of variation was 5.7, 3.2 and 4.3% at mean GH concentrations of 1.5, 10 and 22 micrograms/L respectively. To avoid interassay variations, all samples from a subject were run in the same assay.
To confirm the uniqueness of such combined clonidine plus GHRH test in the differentiation of GH-deficient states, the theoretical GH responses to this test in short children were calculated on the basis of the equation obtained from the multiple regression analysis relating chronological and bone age with the amplitude of GH peaks in normal children. […] Responses between the -20 to +20% range were considered to be normals, as they fitted between the standard deviation from the mean in the group of normal children.

Assay [3] is described as follows: Growth velocity of short children treated with GH. Format: in vivo. The note with it: three children treated with GH for 9 months; increased from 3 cm/yr. An excerpt:
Twenty-four children (17 boys and 7 girls) with stature below the third percentile (P3), participated in the study with informed consent (parent and child). Ages of the children ranged from 7 to 13.9 years. In all but seven of the children, weight was more than or equal to P3. […] Two children had received prophylactic cranial irradiation due to brain tumors, five and three years before the study. Three children had been treated with GH for 9 months; their growth velocity increased during this therapy from 3 to 8 cm/yr. All children had been previously studied for their GH insufficiency. Studies included growth velocity, bone age, classical provocative tests for GH secretion (i.e. clonidine, insulin hypoglycemia and propranolol plus exercise), plasma somatomedin C (Sm C) (Insulin Growth Factor-I (IGF-I)) analysis, and analysis of the spontaneous pattern of nocturnal GH secretion. […] Mean (±SEM) plasma Sm C was 488±376 U/L. Mean (±SEM) growth velocity was 3.7±0.9 cm/yr.

The mark [4] stands for this setting: patient group 1, short children.
Setting [5] is: patient group 2, short children.
The mark [6] stands for this setting: patient group 3, short children.
Where [7] appears, read: patient group 4, short children.
The mark [8] stands for this setting: patient group 5, short children.

Where no end group is shown, it is not given here.

As to `Clc1cccc(Cl)c1NC1=NCCN1` [clonidine, 2-(2,6-dichloroanilino)-2-imidazoline], the “Effect on GHRH-induced GH secretion” value with GH secretion [1] (normal subjects, short, normal children and adults (literature)) is given as “enhances the GH response to GHRH”. For the same compound, the “Share of children appearing GH-deficient on the basis of a low GH response (<10 μg/L) to the provocative test” value in the assay with GH secretion [2] (24 short children, earlier work-up) is 50%. Moreover, the “Number of positive (+, >10 μg/L) GH responses” value in the assay on GH secretion [2] (setting [4]) was found to be 0; in the assay with GH secretion [2] (setting [5]) it was 4; with GH secretion [2] (setting [6]), 2; in the assay with GH secretion [2] (setting [7]) it was 3; with GH secretion [2] (setting [8]), 1. In addition, the “Number of negative (-, <10 μg/L) GH responses” value in the assay with GH secretion [2] (setting [6]) is 2. For the same compound, in the assay on GH secretion [2] (patient group 5, malnourished children), the “Effect of pretreatment with clonidine on the GH response to GHRH” value is listed as “did not significantly enhance the GH response to GHRH”.

Consider `CN(C)C(=O)Oc1ccc[n+](C)c1` [pyridostigmine], for which the “Usefulness as treatment of short stature” value with GH secretion [1] (literature (Ghigo 1989)) is “does not represent a useful treatment of short stature”.

For the compound “GH: exogenous growth hormone given to three children for 9 months”, the “Growth velocity during GH therapy” value in assay [3] was determined as 8 cm/yr.

Turning to “GHRH: growth hormone-releasing hormone, used as GRF 1-29 (Serono, Spain), intravenous bolus (YADAIFTNSYRKVLGQLSARKLLQDIMSR; ends and bridges not checked; UniProt P01286 32-60, looked up, fragment)”, the “Number of patients with deficient GHRH-induced GH response (GH peak <10 μg/L)” value with GH secretion [2] (24 short children, pretreatment with placebo) is 9 patients. Moreover, the “Number of negative (-, <10 μg/L) GH responses” value in the assay with GH secretion [2] (setting [4]) is 4; with GH secretion [2] (setting [5]) it was 2. For the same compound, the “Number of positive (+, >10 μg/L) GH responses” value in the assay on GH secretion [2] (setting [4]) turned out to be 2; with GH secretion [2] (setting [5]), 3; with GH secretion [2] (setting [6]), 3; with GH secretion [2] (setting [7]), 3; in the assay with GH secretion [2] (setting [8]), 3. For the same compound, the “Mean GH peak response to GHRH” value with GH secretion [2] (short children, placebo at time 0, GHRH i.v. bolus at 60 minutes) stood at 19.5 ± 15.7 µg/L.
